Reference: patent publication US8258098B2, “Antitumoral treatments” (Pharma Mar, S.A., priority 2006, dated 2012)

Assays:
A549 cells = experiment: MTS cytotoxicity assay, 72 hours, single agents and combinations with Aplidine; type: cell-based; conditions: Homo sapiens, A549, 72 hours drug exposure, read-out: IC50 (Molar)
Description: (§1) Day before plating cells all cultures were fed with fresh, complete growth media. On the harvest (plating) day cells were counted by Trypan Blue exclusion staining method (basic cell culture). Cells were harvested and seeded in 96 well microtiter plates at 10,000 cells per well in 190 μL of media and incubated for 24 hours to allow the cells to attach before drug addition. Cells were treated with the drugs and the cytotoxic effect was measured by the MTS Assay (Tetrazolium), which is a colorimetric method for determining the number of viable cells. After the 72 hours of incubation with drug, 25 μL of MTS+PMS solution was added to each microtiter well and incubated for 4 hours at 37° C. Plates were then removed from incubator and placed on plate shaker for 5 minutes (covered with aluminium foil for protection from light). Optical densities were read at 490 nm on spectrophotometer plate reader.
(§2) The microtiter plates were incubated for 72 hrs, at 5% CO2 and 37° C. The cytotoxic effect was measured by MTS Assay. Optical densities read at 490 nm. Normalized data was plotted and interpreted as described. Data was analysed as: • 1. Prism (Graphpad) software program was used to normalized the data to control values (100%=cell growth in the absence of agent (drug); 0%=blank control). • 2. Data normalized were plotted as scatter plots.
(§3) Conversely, antagonism was concluded when inhibition was lower than both maxima. […] Statistical significance was assessed by performing a student's t-test on the inhibition at each dose ratio versus the inhibition at the maximum for each drug.
(§4) As a visual aid, response values were plotted on a scatter plot with dose ratios given on the x-axis and % response values on the y-axis. […] In cases where response values at the two endpoints were approximately equivalent, points lying above or below this predicted line of additivity could be interpreted as representing antagonistic or synergistic drug interaction, respectively.

HL60 cells = experiment: as above; type: cell-based; conditions: Homo sapiens, HL-60, HL60, 72 hours drug exposure, read-out: IC50 (Molar)
Description: as §1, §2, §3, §4

HT29 cells = experiment: as above; type: cell-based; conditions: Homo sapiens, HT-29, HT29, 72 hours drug exposure, read-out: IC50 (Molar)
Description: as §1, §2, §3, §4

MOLT3 cells = experiment: as above; type: cell-based; conditions: Homo sapiens, MOLT-3, MOLT3, 72 hours drug exposure, read-out: IC50 (Molar)
Description: as §1, §2, §3, §4

MX1 cells = experiment: as above; type: cell-based; conditions: Homo sapiens, MX1, 72 hours drug exposure, read-out: IC50 (Molar)
Description: as §1, §2, §3, §4

PC3 cells = experiment: as above; type: cell-based; conditions: Homo sapiens, PC-3, PC3, 72 hours drug exposure, read-out: IC50 (Molar)
Description: as §1, §2, §3, §4

[1] = tested on: LOX-IMVI melanoma tumor xenografts; experiment: Net tumor volume in tumor xenografts; type: in vivo, female athymic mice; conditions: DTIC 30 mg/kg, Carboplatin 25 mg/kg, i.p.
Text: (§5) Athymic nude female mice were received from Harlan Sprague Dawley, Madison, Wis. at 4-5 weeks of age. Mice were acclimated to the laboratory for at least one week prior to implantation of tumor. Animals were housed in static cages with food and water allowed ad libitum. Experimental animals were implanted with either tumor fragments derived from transplantation established human tumors or with cells obtain directly from in vitro culture. Tumors were implanted subcutaneously on the right flank on Day 0.
(§6) Tumor size measurements were recorded twice weekly beginning on day 4 or 5 using vernier calipers. The formula to calculate volume for a prolate ellipsoid was used to estimate tumor volume from 2-dimensional tumor measurements: tumor volume (mm^3)=(length×width^2)÷2. Assuming unit density, volume was converted to weight (i.e., 1 mm^3=1 mg). […] Treatments were initiated and administered on an individual body weight basis. A dose range finding study was performed on each tumor model to determine the appropriate dose level of each compound used in the combination studies.

[2] = tested on: MRI-H187 melanoma tumor xenografts; experiment: Net tumor volume in tumor xenografts; type: in vivo, female athymic mice; conditions: Aplidine 50 μg/kg, DTIC 40 mg/kg, Carboplatin 25 mg/kg, i.p.
Text: as §5, §6

[3] = tested on: CaKi-1 renal tumor xenografts; experiment: Net tumor volume in tumor xenografts; type: in vivo, female athymic mice; conditions: Aplidine 50 μg/kg i.p., Avastin 5.0 mg/kg i.p., IL-2 2 μg/mouse i.p., INF-α 200,000 U/mouse s.c.
Text: as §5, §6

[4] = tested on: MRI-H121 renal tumor xenografts; experiment: Net tumor volume in tumor xenografts; type: in vivo, female athymic mice; conditions: Aplidine 25 μg/kg i.p., Avastin […] i.p., IL-2 1 μg/mouse i.p., INF-α 200,000 U/mouse s.c.
Text: as §5, §6

O=c1[nH]cc(F)c(=O)[nH]1 [5-FU, 5-fluorouracil]
IC50 (A549 cells): 1400 µM | IC50 (HL60 cells): 1200 µM | IC50 (HT29 cells): 880 µM | IC50 (MOLT3 cells): 11 µM | IC50 (MX1 cells): > 100 µM | IC50 (PC3 cells): 220 µM

CN(C)/N=N/c1[nH]cnc1C(N)=O [DTIC, dacarbazine]
Net Tumor Volume ± S.E.M. ([1]; DAY 8, Aplidine 50 μg/kg): 208 ± 25 mg | Net Tumor Volume ± S.E.M. ([1]; DAY 12, Aplidine 50 μg/kg): 699 ± 57 mg | Net Tumor Volume ± S.E.M. ([1]; DAY 14, Aplidine 50 μg/kg): 950 ± 57 mg | Net Tumor Volume ± S.E.M. ([1]; DAY 19, Aplidine 50 μg/kg): 2695 ± 560 mg | Net Tumor Volume ± S.E.M. ([2]; MRI-H187, DAY 20): 148 ± 14 mg | Net Tumor Volume ± S.E.M. ([2]; MRI-H187, DAY 24): 264 ± 60 mg | Net Tumor Volume ± S.E.M. ([2]; MRI-H187, DAY 27): 377 ± 98 mg | Net Tumor Volume ± S.E.M. ([2]; MRI-H187, DAY 31): 558 ± 152 mg | Net Tumor Volume ± S.E.M. ([2]; MRI-H187, DAY 34): 681 ± 187 mg | Net Tumor Volume ± S.E.M. ([2]; MRI-H187, DAY 38): 927 ± 274 mg | Net Tumor Volume ± S.E.M. ([2]; MRI-H187, DAY 46): 1508 ± 427 mg | Net Tumor Volume ± S.E.M. ([2]; MRI-H187, DAY 49): 1804 ± 507 mg | Net Tumor Volume ± S.E.M. ([2]; MRI-H187, DAY 52): 2036 ± 525 mg | Net Tumor Volume ± S.E.M. ([2]; MRI-H187, DAY 55): 2123 ± 558 mg | Net Tumor Volume ± S.E.M. ([2]; MRI-H187, DAY 59): 2166 ± 563 mg | Net Tumor Volume ± S.E.M. ([2]; MRI-H187, DAY 62): 2333 ± 433 mg | Net Tumor Volume ± S.E.M. ([2]; MRI-H187, DAY 66): 2508 ± 536 mg

Avastin ®: Bevacizumab (Avastin®), standard of care agent
Net Tumor Volume ± S.E.M. ([3]; CaKi-1, DAY 13): 105 ± 3 mg | Net Tumor Volume ± S.E.M. ([3]; CaKi-1, DAY 15): 162 ± 14 mg | Net Tumor Volume ± S.E.M. ([3]; CaKi-1, DAY 19): 286 ± 49 mg | Net Tumor Volume ± S.E.M. ([3]; CaKi-1, DAY 22): 398 ± 53 mg | Net Tumor Volume ± S.E.M. ([3]; CaKi-1, DAY 26): 632 ± 79 mg | Net Tumor Volume ± S.E.M. ([3]; CaKi-1, DAY 29): 811 ± 90 mg | Net Tumor Volume ± S.E.M. ([3]; CaKi-1, DAY 33): 985 ± 111 mg | Net Tumor Volume ± S.E.M. ([3]; CaKi-1, DAY 36): 1251 ± 109 mg | Net Tumor Volume ± S.E.M. ([3]; CaKi-1, DAY 41): 1654 ± 189 mg | Net Tumor Volume ± S.E.M. ([3]; CaKi-1, DAY 47): 2170 ± 253 mg | Net Tumor Volume ± S.E.M. ([3]; CaKi-1, DAY 50): 2842 ± 379 mg | Net Tumor Volume ± S.E.M. ([4]; MRI-H121, DAY 11): 106 ± 7 mg | Net Tumor Volume ± S.E.M. ([4]; MRI-H121, DAY 14): 171 ± 16 mg | Net Tumor Volume ± S.E.M. ([4]; MRI-H121, DAY 18): 306 ± 27 mg | Net Tumor Volume ± S.E.M. ([4]; MRI-H121, DAY 19): 299 ± 39 mg | Net Tumor Volume ± S.E.M. ([4]; MRI-H121, DAY 21): 365 ± 39 mg | Net Tumor Volume ± S.E.M. ([4]; MRI-H121, DAY 26): 503 ± 57 mg | Net Tumor Volume ± S.E.M. ([4]; MRI-H121, DAY 29): 678 ± 77 mg | Net Tumor Volume ± S.E.M. ([4]; MRI-H121, DAY 32): 899 ± 93 mg | Net Tumor Volume ± S.E.M. ([4]; MRI-H121, DAY 35): 898 ± 69 mg | Net Tumor Volume ± S.E.M. ([4]; MRI-H121, DAY 39): 1240 ± 124 mg | Net Tumor Volume ± S.E.M. ([4]; MRI-H121, DAY 42): 1383 ± 148 mg
